# According to patent US20260167619A2, “INDOLINE COMPOUNDS AND DERIVATIVES AS EGFR INHIBITORS” (BeOne Medicines I GmbH, priority 2020, published 2026):
# What was measured:
# [1] = target: T1, EGFR (aa668-1210, Invitrogen) (Homo sapiens, UniProt P00533); test: Biochemical EGFR inhibition assay (TR-FRET), wild-type EGFR; conditions: ATP at Km, 15 min pre-incubation, 60 min reaction; read-out: WT (Km ATP) IC50
# T1 construct: EGFR (aa668-1210, Invitrogen); purchased Invitrogen
# Summary of the method: (§1)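 Recombinant kinase pre-incubated with compound 15 min at room temperature in 50 mM HEPES pH7.5, 10 mM MgCl2, 2 mM DTT, 1 mM EGTA, 0.1% BSA, 0.01% Tween-20; reaction started with ATP at Km plus biotin-poly GT, run 60 min at RT. HTRF read (665/620 nm); IC50 from four-parameter logistic fit.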
# [2] = target: T2, EGFR(L858R_T790M_C797S) (aa695-end, Invitrogen) (Homo sapiens, UniProt P00533, C797S/L858R/T790M); test: Biochemical EGFR inhibition assay (TR-FRET), L858R/T790M/C797S mutant; conditions: ATP at Km, 15 min pre-incubation, 60 min reaction; read-out: LR_TM_CS (Km ATP) IC50
# T2 construct: purchased Invitrogen
# Summary of the method: as §1
# [3] = target: EGFR(Dell9_T790M_C797S) (aa 669-1210, in house) (Homo sapiens, UniProt P00533, T790M/C797S, form not given); test: Biochemical EGFR inhibition assay (TR-FRET), Del19/T790M/C797S mutant; conditions: ATP at Km, 15 min pre-incubation, 60 min reaction; read-out: Del_TM_CS (Km ATP) IC50
# Summary of the method: as §1
# BaF3-WT cells = BaF3-WT cells (Homo sapiens, UniProt P00533); test: Cell antiproliferation assay (CellTiter-Glo), BaF3-WT; assay type: cell-based; conditions: 48 h treatment, read-out: BaF3-WT IC50
# Method: (§2) BaF3 cells are treated with compounds diluted in 0.2% DMSO, dilution is done according to the following protocol: (1) make 500× stock solution in DMSO from 5 mM by 5-fold dilution, total 8 doses were included; (2) make 10× solution in cell culture medium by transferring 2 μl 500× stock solution into 98 μl medium; (3) 10 μl of 10× solution is added to cells and incubate for 48 h.
# (§3) After 48 h treatment, add 30 μl CellTiter-Glo reagent[CellTiter-Glo® 2.0, (Promega, Cat #G9242)] to each well; seal the plate and incubate 2 min at room temperature on a plate shaker; Allow the plate to incubate at room temperature for 10 minutes to stabilize the luminescent signal. Record luminescence on BMG PheraStar with luminescence protocol.
# (§4) The IC50 value of a compound can be obtained by fitting the following equation
# (§5) Wherein, X and Y are known values, and IC50, Hillslope, Top and Bottom are the parameters obtained by fitting with software. Y is the inhibition percentage (calculated from the equation), X is the concentration of the compound; IC50 is the concentration of the compound when the 50% inhibition is reached. The smaller the IC50 value is, the stronger the inhibitory ability of the compound is. Vice versa, the higher the IC50 value is, the weaker the ability the inhibitory ability of the compound is; Hillslope represents the slope of the fitted curve, generally around 1 *; Bottom represents the minimum value of the curve obtained by data fitting, which is generally 0%±20%; Top represents the maximum value of the curve obtained by data fitting, which is generally 100%±20%. The experimental data were fitted by calculating and analyzing with Dotmatics data analysis software.
# BaF3-LR_TM_CS cells = BaF3-LR_TM_CS cells (Homo sapiens, UniProt P00533, T790M/C797S/L858R, cells depend on it); test: Cell antiproliferation assay (CellTiter-Glo), BaF3-LR_TM_CS; assay type: cell-based; conditions: 48 h treatment, read-out: BaF3-LR_TM_CS IC50
# Method: as §2, §3, §4, §5
# BaF3-Del_TM_CS cells = BaF3-Del_TM_CS cells (Homo sapiens, UniProt P00533, T790M/C797S, cells depend on it, form not given); test: Cell antiproliferation assay (CellTiter-Glo), BaF3-Del_TM_CS; assay type: cell-based; conditions: 48 h treatment, read-out: BaF3-Del_TM_CS IC50
# Method: as §2, §3, §4, §5
# Chain of BaF3-WT cells (P00533 whole entry, change not shown): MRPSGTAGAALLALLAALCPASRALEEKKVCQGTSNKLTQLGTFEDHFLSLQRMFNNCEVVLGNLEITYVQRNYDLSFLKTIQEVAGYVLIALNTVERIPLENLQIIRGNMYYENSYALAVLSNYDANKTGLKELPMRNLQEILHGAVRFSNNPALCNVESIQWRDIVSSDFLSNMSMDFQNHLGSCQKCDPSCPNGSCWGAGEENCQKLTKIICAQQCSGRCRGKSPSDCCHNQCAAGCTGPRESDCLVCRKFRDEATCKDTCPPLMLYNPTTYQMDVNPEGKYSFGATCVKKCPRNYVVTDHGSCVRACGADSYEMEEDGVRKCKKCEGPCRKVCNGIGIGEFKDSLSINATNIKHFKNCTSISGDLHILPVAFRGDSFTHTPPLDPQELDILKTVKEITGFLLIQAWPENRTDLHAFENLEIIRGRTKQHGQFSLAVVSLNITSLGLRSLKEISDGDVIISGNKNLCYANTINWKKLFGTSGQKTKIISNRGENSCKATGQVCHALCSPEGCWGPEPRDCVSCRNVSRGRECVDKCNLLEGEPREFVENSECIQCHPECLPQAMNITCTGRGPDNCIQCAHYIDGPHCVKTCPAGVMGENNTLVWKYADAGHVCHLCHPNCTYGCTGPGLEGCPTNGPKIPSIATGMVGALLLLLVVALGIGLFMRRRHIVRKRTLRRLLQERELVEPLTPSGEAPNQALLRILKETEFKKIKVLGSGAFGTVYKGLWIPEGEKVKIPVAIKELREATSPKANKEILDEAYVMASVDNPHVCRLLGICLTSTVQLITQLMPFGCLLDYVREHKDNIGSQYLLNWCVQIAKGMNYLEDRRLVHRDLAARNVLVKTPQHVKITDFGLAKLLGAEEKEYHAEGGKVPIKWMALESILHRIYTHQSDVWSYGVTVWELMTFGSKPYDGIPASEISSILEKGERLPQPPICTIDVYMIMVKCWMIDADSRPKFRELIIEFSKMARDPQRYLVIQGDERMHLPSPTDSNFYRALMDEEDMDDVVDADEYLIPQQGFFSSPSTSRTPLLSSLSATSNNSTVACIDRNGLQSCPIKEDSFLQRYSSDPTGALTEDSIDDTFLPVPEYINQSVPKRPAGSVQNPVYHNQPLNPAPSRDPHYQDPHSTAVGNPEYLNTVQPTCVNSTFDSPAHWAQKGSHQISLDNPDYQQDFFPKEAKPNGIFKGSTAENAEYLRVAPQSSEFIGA
# Chain of BaF3-LR_TM_CS cells (P00533 whole entry T790M/C797S/L858R): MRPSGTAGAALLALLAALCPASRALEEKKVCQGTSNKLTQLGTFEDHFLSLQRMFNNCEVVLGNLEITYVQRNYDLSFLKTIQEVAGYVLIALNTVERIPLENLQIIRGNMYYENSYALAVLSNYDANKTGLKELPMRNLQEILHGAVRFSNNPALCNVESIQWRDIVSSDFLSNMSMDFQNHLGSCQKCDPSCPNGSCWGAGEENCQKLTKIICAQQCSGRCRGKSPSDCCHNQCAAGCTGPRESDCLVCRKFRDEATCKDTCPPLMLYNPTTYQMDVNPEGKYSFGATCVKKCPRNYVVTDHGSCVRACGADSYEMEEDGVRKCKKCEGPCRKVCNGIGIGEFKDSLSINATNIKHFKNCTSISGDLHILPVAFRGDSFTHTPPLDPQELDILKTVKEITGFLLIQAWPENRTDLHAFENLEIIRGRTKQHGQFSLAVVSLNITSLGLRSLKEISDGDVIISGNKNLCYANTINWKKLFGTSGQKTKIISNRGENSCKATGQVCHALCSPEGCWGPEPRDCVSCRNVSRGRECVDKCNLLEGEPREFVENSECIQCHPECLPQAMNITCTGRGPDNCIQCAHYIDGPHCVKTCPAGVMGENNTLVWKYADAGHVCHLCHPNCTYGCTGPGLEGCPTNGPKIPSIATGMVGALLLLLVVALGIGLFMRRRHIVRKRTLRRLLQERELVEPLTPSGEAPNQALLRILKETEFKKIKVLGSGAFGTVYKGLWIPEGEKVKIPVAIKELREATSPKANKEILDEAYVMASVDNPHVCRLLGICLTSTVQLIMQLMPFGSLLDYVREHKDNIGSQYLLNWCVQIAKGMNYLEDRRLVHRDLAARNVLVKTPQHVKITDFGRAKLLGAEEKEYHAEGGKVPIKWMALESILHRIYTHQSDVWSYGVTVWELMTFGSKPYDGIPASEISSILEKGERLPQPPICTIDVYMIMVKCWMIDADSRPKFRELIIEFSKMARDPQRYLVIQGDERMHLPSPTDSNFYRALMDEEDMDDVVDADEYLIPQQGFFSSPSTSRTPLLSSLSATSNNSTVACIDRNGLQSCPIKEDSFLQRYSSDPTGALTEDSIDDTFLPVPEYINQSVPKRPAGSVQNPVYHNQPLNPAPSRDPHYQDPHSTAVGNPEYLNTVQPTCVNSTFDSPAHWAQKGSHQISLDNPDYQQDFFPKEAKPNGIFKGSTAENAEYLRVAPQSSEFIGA
# Chain of EGFR(Dell9_T790M_C797S) (aa 669-1210, in house) (P00533 with tags, fused parts or gaps DEL746-750/T790M/C797S, form open): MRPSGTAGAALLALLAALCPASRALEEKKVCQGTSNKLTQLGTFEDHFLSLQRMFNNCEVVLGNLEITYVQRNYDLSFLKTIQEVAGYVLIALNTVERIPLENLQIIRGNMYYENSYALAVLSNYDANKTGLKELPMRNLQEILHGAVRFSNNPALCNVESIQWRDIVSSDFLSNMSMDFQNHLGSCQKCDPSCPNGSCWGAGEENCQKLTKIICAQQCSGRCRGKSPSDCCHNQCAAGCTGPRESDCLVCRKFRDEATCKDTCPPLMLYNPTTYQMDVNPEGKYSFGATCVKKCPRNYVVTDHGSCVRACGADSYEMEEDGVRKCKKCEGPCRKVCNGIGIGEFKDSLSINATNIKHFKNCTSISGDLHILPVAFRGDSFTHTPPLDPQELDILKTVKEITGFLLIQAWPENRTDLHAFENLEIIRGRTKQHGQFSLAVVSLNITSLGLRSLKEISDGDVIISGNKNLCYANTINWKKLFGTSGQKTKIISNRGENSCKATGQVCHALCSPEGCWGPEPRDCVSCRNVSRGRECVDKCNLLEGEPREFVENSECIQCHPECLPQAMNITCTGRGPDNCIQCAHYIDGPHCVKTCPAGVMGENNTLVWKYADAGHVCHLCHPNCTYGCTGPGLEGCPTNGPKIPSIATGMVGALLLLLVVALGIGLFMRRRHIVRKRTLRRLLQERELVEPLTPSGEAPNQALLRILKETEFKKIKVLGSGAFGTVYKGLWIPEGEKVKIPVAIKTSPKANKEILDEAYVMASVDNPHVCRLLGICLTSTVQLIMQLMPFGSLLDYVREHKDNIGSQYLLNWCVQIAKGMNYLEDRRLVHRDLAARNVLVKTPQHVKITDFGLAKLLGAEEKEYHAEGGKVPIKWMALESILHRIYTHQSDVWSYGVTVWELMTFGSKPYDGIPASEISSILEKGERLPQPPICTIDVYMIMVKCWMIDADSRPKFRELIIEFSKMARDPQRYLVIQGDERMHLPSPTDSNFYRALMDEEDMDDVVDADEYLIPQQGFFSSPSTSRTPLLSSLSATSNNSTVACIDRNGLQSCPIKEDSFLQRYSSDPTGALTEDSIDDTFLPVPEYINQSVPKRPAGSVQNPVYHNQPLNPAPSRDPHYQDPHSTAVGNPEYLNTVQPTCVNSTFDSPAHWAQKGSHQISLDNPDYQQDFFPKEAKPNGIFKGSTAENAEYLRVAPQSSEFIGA
# Chain of BaF3-Del_TM_CS cells (P00533 with tags, fused parts or gaps DEL746-750/T790M/C797S, form open): as above
SMILES,IC50 [1],IC50 [2],IC50 [3],GI50 (BaF3-WT cells),GI50 (BaF3-LR_TM_CS cells),GI50 (BaF3-Del_TM_CS cells)
"CCc1cc(Nc2ncc(Cl)c(Nc3cccc4c3N(S(C)(=O)=O)CC4)n2)c(OC)cc1N1CCC(N2CCN(C)CC2)CC1 [Example 41, 5-chloro-N^2-(5-ethyl-2-methoxy-4-(4-(4-methylpiperazin-1-yl)piperidin-1-yl)phenyl)-N^4-(1-(methylsulfonyl)indolin-7yl)pyrimidine-2,4-diamine]",0.81 nM,0.67 nM,0.51 nM,610 nM,15.4 nM,6.06 nM
"COc1cc(N2CCC(N3CCN(C)CC3)CC2)ccc1Nc1ncc(Cl)c(Nc2cccc3c2N(S(=O)(=O)CCc2ccccc2)CC3)n1 [Example 8, 5-chloro-N^2-(2-methoxy-4-(4-(4-methylpiperazin-1-yl)piperidin-1-yl)phenyl)-N^4-(1-(phenethylsulfonyl)indolin-7-yl)pyrimidine-2,4-diamine]",14 nM,21 nM,121 nM,1860 nM,730 nM,630 nM
"CN1CCN(c2ccc(Nc3nc(Nc4cccc5c4N(S(C)(=O)=O)CC5)c4cc[nH]c4n3)cn2)CC1 [Example 123, N^2-(6-(4-methylpiperazin-1-yl)pyridin-3-yl)-N^4-(1-(methylsulfonyl)indolin-7-yl)-7H-pyrrolo[2,3-d]pyrimidine-2,4-diamine]",573 nM,4.8 nM,6.3 nM,376 nM,169 nM,64.3 nM
"COc1cc(N2CCC(N3CCN(C)CC3)CC2)c(F)cc1Nc1nc(Nc2cccc3c2N(S(C)(=O)=O)CC3)c2cc[nH]c2n1 [Example 98, N^2-(5-fluoro-2-methoxy-4-(4-(4-methylpiperazin-1-yl)piperidin-1-yl)phenyl)-N4-(1-(methylsulfonyl)indolin-7-yl)-7H-pyrrolo[2,3-d]pyrimidine-2,4-diamine]",22 nM,0.56 nM,0.96 nM,1460 nM,76.5 nM,24.7 nM
"COc1cc(N2CCC(N3CCN(C)CC3)CC2)ccc1Nc1nc2c(c(Nc3cccc4c3N(S(C)(=O)=O)CC4)n1)CCC2 [Example 74, N^2-(2-methoxy-4-(4-(4-methylpiperazin-1-yl)piperidin-1-yl)phenyl)-N^4-(1-(methylsulfonyl)indolin-7-yl)-6,7-dihydro-5H-cyclopenta[d]pyrimidine-2,4-diamine]",525 nM,53 nM,131 nM,2350 nM,617 nM,436 nM
"COc1cc(N2CCC(N3CCN(C)CC3)CC2)c(C)cc1Nc1ncc(Cl)c(Nc2cccc3c2N(S(C)(=O)=O)CC3)n1 [Example 39, 5-chloro-N^2-(2-methoxy-5-methyl-4-(4-(4-methylpiperazin-1-yl)piperidin-1-yl)phenyl)-N^4-(1-(methylsulfonyl)indolin-7-yl)pyrimidine-2,4-diamine]",0.36 nM,0.28 nM,0.35 nM,500 nM,11.4 nM,4.54 nM
"CN(C)C1CCN(c2ccc(Nc3nc(Nc4cccc5c4N(S(C)(=O)=O)CC5)c4cc[nH]c4n3)c3c2CCO3)CC1 [Example 124, N^2-(4-(4-(dimethylamino)piperidin-1-yl)-2,3-dihydrobenzofuran-7-yl)-N^4-(1-(methylsulfonyl)indolin-7-yl)-7H-pyrrolo[2,3-d]pyrimidine-2,4-diamine]",107 nM,1 nM,1 nM,460 nM,106 nM,39.1 nM
"COc1cc(N2CCC3(CCN(C)CC3)CC2)c(Cl)cc1Nc1nc(Nc2cccc3c2N(S(C)(=O)=O)CC3)c2cc[nH]c2n1 [Example 96, N^2-(5-chloro-2-methoxy-4-(9-methyl-3,9-diazaspiro[5.5]undecan-3-yl)phenyl)-N^4-(1-(methylsulfonyl)indolin-7-yl)-7H-pyrrolo[2,3-d]pyrimidine-2,4-diamine]",109 nM,1.4 nM,1.7 nM,1480 nM,66.5 nM,29.3 nM
